Patent US20050158721A1, “Tissue rejection” (priority 2002, published 2005)

Key:
[1] = system: primary human tubular epithelial cell (HTEC); test: SA β Gal staining at pH6 in primary tubular epithelial cultures as a measure of senescence, with or without H2O2; assay type: cell-based; details: 10 ng/ml tacrolimus (FK); cells challenged with oxidant H2O2 (75 μM); FIG. 3
Protocol: HTEC culture. Primary HTEC cultures were grown at 37° C. 5% CO2 in DMEM/Glutamax-1/+ pyridoxine medium (Life technologies) plus […] ml^−1 Penstrep. Cells were stained for SA β Gal activity as described in Joosten et al 2003.
Building upon the rodent observations, the inventor has established a primary human tubular epithelial cell (HTEC) in vitro system to model and evaluate premature human renal senescence. […] This is shown in FIG. 3, which illustrates SA β Gal staining at pH6 in primary tubular epithelial cultures as a measure of senescence.
Cultures were grown ±100 ng/ml cyclosporin (cyc) or 10 ng/ml tacrolimus (FK) and evaluated with or without oxidising 75 μM H2O2 treatment.
This has profound implications for transplant outcome and current clinical practice.

[2] = patients treated after cadaveric renal transplantation; result not always reproducible; cited from earlier work

C=CC[C@@H]1/C=C(\C)C[C@H](C)C[C@H](OC)[C@H]2O[C@@](O)(C(=O)C(=O)N3CCCC[C@H]3C(=O)O[C@H](/C(C)=C/[C@@H]3CC[C@@H](O)[C@H](OC)C3)[C@H](C)[C@@H](O)CC1=O)[C@H](C)C[C@@H]2OC [tacrolimus]
effect on oxidant stress, judged by SA β Gal staining at pH6 [1]: protect against the effects of oxidant stress

superoxide dismutase
1 and 4 year graft survival rate [2]: significantly improved | first acute rejection episodes [2]: reduction
